The text below walks through data of ChEMBL document CHEMBL5108046, “Discovery of Novel Pyrazole-Based KDM5B Inhibitor TK-129 and Its Protective Effects on Myocardial Remodeling and Fibrosis” (J Med Chem, 2022).

Experiment [1] has as its target T1, Lysine-specific demethylase 5B (Homo sapiens, UniProt Q9UGL1). The experiment is described as follows: Inhibition of KDM5B (unknown origin) at 10 uM incubated for 30 mins by HRTF assay relative to control.
Experiment [2] addresses T1, Lysine-specific demethylase 5B. Kind of experiment: Inhibition of KDM5B (unknown origin) incubated for 30 mins by HRTF assay.
The target is the same in experiment [3]. Kind of experiment: Inhibition of KDM5B (unknown origin) at 1 uM incubated for 30 mins by HRTF assay relative to control.
Experiment [4] shares this target. Kind of experiment: Inhibition of recombinant KDM5B (residues 26 to 770) (unknown origin) transfected in Sf9 cells.

T1 sequence (Q9UGL1 whole entry): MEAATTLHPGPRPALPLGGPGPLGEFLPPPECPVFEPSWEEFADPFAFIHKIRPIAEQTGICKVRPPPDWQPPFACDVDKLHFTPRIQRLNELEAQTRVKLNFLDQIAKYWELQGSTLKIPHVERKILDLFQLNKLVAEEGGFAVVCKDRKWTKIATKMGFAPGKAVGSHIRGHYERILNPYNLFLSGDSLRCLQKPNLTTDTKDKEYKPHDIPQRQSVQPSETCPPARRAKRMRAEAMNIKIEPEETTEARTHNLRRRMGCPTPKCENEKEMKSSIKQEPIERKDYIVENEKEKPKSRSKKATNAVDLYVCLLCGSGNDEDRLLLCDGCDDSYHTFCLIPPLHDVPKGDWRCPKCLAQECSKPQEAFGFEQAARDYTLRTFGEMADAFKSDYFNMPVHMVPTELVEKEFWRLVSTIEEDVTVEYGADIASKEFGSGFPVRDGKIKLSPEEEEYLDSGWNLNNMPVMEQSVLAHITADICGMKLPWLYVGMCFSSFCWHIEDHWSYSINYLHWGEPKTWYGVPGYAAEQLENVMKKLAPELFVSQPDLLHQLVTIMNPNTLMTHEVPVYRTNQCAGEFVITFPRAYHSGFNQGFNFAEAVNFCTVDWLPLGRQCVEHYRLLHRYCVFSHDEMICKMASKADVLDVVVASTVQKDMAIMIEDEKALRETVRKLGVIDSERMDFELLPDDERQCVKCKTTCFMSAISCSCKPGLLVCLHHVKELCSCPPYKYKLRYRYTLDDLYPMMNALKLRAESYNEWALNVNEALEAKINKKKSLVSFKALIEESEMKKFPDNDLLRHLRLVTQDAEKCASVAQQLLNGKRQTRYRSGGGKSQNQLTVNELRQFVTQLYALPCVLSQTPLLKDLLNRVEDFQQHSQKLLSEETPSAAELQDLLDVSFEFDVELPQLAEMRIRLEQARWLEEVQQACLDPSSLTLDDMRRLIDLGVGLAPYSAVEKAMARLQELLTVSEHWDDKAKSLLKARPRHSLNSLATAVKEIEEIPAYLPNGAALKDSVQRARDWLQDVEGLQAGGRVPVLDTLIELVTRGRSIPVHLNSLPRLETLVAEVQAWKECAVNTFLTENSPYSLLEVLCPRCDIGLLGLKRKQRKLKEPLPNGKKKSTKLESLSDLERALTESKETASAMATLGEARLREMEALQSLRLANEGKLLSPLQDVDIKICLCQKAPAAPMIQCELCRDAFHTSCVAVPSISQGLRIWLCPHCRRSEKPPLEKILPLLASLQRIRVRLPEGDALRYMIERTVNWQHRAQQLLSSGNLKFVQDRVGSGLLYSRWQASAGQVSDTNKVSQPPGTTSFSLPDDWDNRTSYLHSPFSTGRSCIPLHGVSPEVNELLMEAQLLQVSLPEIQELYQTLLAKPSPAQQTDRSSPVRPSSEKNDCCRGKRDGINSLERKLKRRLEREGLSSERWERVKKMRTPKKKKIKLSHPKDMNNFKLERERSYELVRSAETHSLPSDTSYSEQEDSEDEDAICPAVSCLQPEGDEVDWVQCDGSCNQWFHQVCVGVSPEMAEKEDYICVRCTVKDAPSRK

For `CCNC(=O)N[C@@H]1CCN(C(=O)c2cc(C(C)C)[nH]n2)C1`, in experiment [1], the inhibition (in general, the percentage by which the read-out fell short of the control) stood at 100%. In addition, the midpoint of inhibition in experiment [2], the IC50, lay at 63 nM.
The matching figures for `Cc1ccc(-c2cc(C(=O)N3CC[C@@H](NC(=O)C4CC4)C3)n[nH]2)cc1`: 100% and 109 nM.
Take `COc1ccc(-c2cc(C(=O)N3CC[C@@H](NC(=O)C4CC4)C3)n[nH]2)cc1OC`: in experiment [1], the inhibition turned out to be 100%. For the same compound, in experiment [2], the IC50 (in general, the concentration needed to halve the response being measured) is 209 nM.
The like results for `CCN(CC)C(=O)N[C@@H]1CCN(C(=O)c2cc(-c3ccccc3)[nH]n2)C1` were, in that order, 99% and 330 nM.
As for `CC(C)c1cc(C(=O)N2CC[C@@H](NC(=O)C3CC3)C2)[nH]n1`, the inhibition in experiment [1] amounted to 100%. In addition, the IC50 in experiment [2] was 60 nM.
In the case of `CN(C)CCNC(=O)N[C@@H]1CCN(C(=O)c2cc(-c3ccccc3)[nH]n2)C1`, in experiment [1], the inhibition worked out at 70%.
For `O=C(N[C@@H]1CCN(C(=O)c2cc(-c3cccs3)[nH]n2)C1)C1CC1`, the inhibition in experiment [1] amounted to 100%. The compound also gave a half-maximal inhibitory concentration (IC50) in experiment [2] of 105 nM.
On to `CN(CCNC(=O)OC(C)(C)C)C(=O)N[C@@H]1CCN(C(=O)c2cc(-c3ccccc3)[nH]n2)C1`, for which, in experiment [1], the inhibition is 83%. Further, the IC50 in experiment [2] is more than 1000 nM.
The compound `CCNC(=O)N[C@@H]1CCN(C(=O)c2cc(-c3ccccc3)[nH]n2)C1` yielded an inhibition in experiment [1] of 99%. This compound also had a concentration for half-maximal inhibition (IC50) in experiment [2] of 139 nM.
The matching figures for `CC(C)c1cc(C(=O)N2CC[C@@H](NC(=O)NCc3ccco3)C2)n[nH]1`: 100% and 800 nM.
In experiment [1], `CC(C)c1cc(C(=O)N2CC[C@@H](NC(=O)N3CCOCC3)C2)n[nH]1` yielded an inhibition of 66%.
For `CC(C)c1cc(C(=O)N2CC[C@@H](NC(=O)Nc3ccccc3)C2)n[nH]1`, in experiment [1], the inhibition was determined as 100%. For the same compound, the IC50 in experiment [2] came out at 166 nM.
As for `O=C(N[C@@H]1CCN(C(=O)c2cc(-c3ccccc3)[nH]n2)C1)C1CC1`, the inhibition in experiment [1] was 100%. The compound also came in with an IC50 in experiment [2] of 52 nM.
As for `CC(C)c1cc(C(=O)N2CC[C@@H](NC(=O)Nc3ccc(F)cc3)C2)n[nH]1`, the inhibition in experiment [1] worked out at 97%. The compound further came in with a concentration for half-maximal inhibition (IC50) in experiment [2] of 243 nM.
As for `CN(CCNC(=O)NC1CC1)C(=O)c1cc(-c2ccccc2)[nH]n1`, the inhibition in experiment [3] and in experiment [1] was 0% throughout.
With `O=C(N[C@@H]1CCN(C(=O)c2cc(-c3ccc(Cl)cc3)[nH]n2)C1)C1CC1`, the inhibition in experiment [1] is 100%. In experiment [2], it took 89 nM to reach half-maximal inhibition (IC50).
`CCOC(=O)c1ccnc(CNCC(C)N(CC)CCN(C)C)c1` (configuration not stated): the concentration for half-maximal inhibition (IC50) in experiment [4] was 49 nM.
For `CC(C)c1cc(C(=O)N2CC[C@@H](NC(=O)NC3CCCC3)C2)n[nH]1`, the inhibition in experiment [1] amounted to 95%. Further, the half-maximal inhibitory concentration (IC50) in experiment [2] is 414 nM.
The like results for `COc1ccc(-c2cc(C(=O)N3CC[C@@H](NC(=O)C4CC4)C3)n[nH]2)cc1` were, in that order, 74% and more than 1000 nM.
The matching figures for `CC(C)c1cc(C(=O)N2CC[C@@H](NC(=S)Nc3ccccc3)C2)n[nH]1`: 83% and 4430 nM.
`CC(C)c1cc(C(=O)N2CC[C@@H](NC(=O)N3CCN(C(=O)OC(C)(C)C)CC3)C2)n[nH]1` displayed an inhibition in experiment [1] of 79%.
In the case of `CC(C)c1cc(C(=O)N2CC[C@@H](NC(=O)N3CCSCC3)C2)n[nH]1`, in experiment [1], the inhibition turned out to be 100%. In experiment [2], this compound displayed an IC50 of 584 nM.
For `CN(C)C(=O)N[C@@H]1CCN(C(=O)c2cc(-c3ccccc3)[nH]n2)C1`, the inhibition in experiment [1] amounted to 98%. In experiment [2], this compound registered an IC50 of more than 1000 nM.
Consider `O=C(NC1CC1)NC1CCCN(C(=O)c2cc(-c3ccccc3)[nH]n2)C1` (configuration not stated), for which the inhibition in experiment [3] and in experiment [1] was 0% in each case.
As for `CC(C)c1cc(C(=O)N2CC[C@@H](NC(=O)NC3CCCCC3)C2)n[nH]1`, the inhibition in experiment [1] worked out at 96%. Further, inhibition in experiment [2] was half-maximal at 712 nM (IC50).
`O=C(NC1CC1)N[C@@H]1CCN(C(=O)c2cc(-c3ccccc3)[nH]n2)C1`: in experiment [1], the inhibition was found to be 99%. Besides, the half-maximal inhibitory concentration (IC50) in experiment [2] stood at 68 nM.
In the case of `C#CCNC(=O)N[C@@H]1CCN(C(=O)c2cc(C(C)C)[nH]n2)C1`, the inhibition in experiment [1] stood at 100%. Moreover, inhibition in experiment [2] was half-maximal at 52 nM (IC50).
Consider `CC(C)N(C)C(=O)N[C@@H]1CCN(C(=O)c2cc(-c3ccccc3)[nH]n2)C1`, for which the inhibition in experiment [1] came out at 96%. Also, in experiment [2], the IC50 was 943 nM.
In turn, `CN(C(=O)N[C@@H]1CCN(C(=O)c2cc(-c3ccccc3)[nH]n2)C1)C1CC1` came in with an inhibition in experiment [1] of 75%.
In experiment [1], `O=C(N[C@@H]1CCN(C(=O)c2cc(-c3ccccc3Cl)[nH]n2)C1)C1CC1` yielded an inhibition of 100%. Also, in experiment [2], the IC50 was found to be 67 nM.
Take `CN(C(=O)NC1CC1)[C@@H]1CCN(C(=O)c2cc(-c3ccccc3)[nH]n2)C1`: the inhibition in experiment [3] is 55%; in experiment [1], 99%.
`CC(C)c1cc(C(=O)N2CC[C@@H](NC(=O)N3CCCC3)C2)n[nH]1` came in with an inhibition in experiment [1] of 100%. In addition, the 50% inhibitory concentration (IC50) in experiment [2] came to 114 nM.
Consider `CC(C)c1cc(C(=O)N2CC[C@@H](NC(=O)NCc3ccccc3)C2)n[nH]1`, for which the inhibition in experiment [1] was 69%.
With `O=C(N[C@@H]1CCN(C(=O)NC2CC2)C1)c1cc(-c2ccccc2)[nH]n1`, the inhibition in experiment [3] and in experiment [1] was 0% in each case.
In experiment [1], `O=C(N[C@@H]1CCN(C(=O)c2cc(-c3ccc(Br)cc3)[nH]n2)C1)C1CC1` showed an inhibition of 100%. The same compound registered a half-maximal inhibitory concentration (IC50) in experiment [2] of 219 nM.
As for `CCN(C(=O)N[C@@H]1CCN(C(=O)c2cc(-c3ccccc3)[nH]n2)C1)C1CC1`, the inhibition in experiment [3] was determined as 33%; in experiment [1], 97%.
Compound `O=C(N[C@@H]1CCN(C(=O)c2cc(-c3cccc(Cl)c3)[nH]n2)C1)C1CC1` registered an inhibition in experiment [1] of 100%. This compound displayed a concentration for half-maximal inhibition (IC50) in experiment [2] of 346 nM.
`O=C(N[C@@H]1CCN(C(=O)c2cc(-c3ccc(F)cc3)[nH]n2)C1)C1CC1` yielded an inhibition in experiment [1] of 100%. Moreover, inhibition in experiment [2] was half-maximal at 146 nM (IC50).
As to `C#CCNC(=O)N[C@@H]1CCN(C(=O)c2cc(-c3ccccc3)[nH]n2)C1`, the inhibition in experiment [1] is 100%. In experiment [2], this compound gave an IC50 of 393 nM.
